Here are results for two substances from ChEMBL document CHEMBL1155831, “The structural basis for peptidomimetic inhibition of eukaryotic ribonucleotide reductase: a conformationally flexible pharmacophore” (J Med Chem, 2008).

A short description of the assay: Inhibition of Saccharomyces cerevisiae ribonucleotide reductase.

pIC50: −log10 of the molar value.

On to H-FTFNEDF-OH, for which the pIC50 (as a rule, −log10 of the IC50, conventionally taken in molar units) was 4.36.
For H-NFDDDF-OH, the negative-log IC50 (pIC50) was 4.52.
